Source: US8378117B2 (priority 2005, dated 2013)
Where “and” joins values, the source holds several entries; their conditions need not be identical. Identical values can stand only once. Like-named read-outs stand apart in the source and are kept apart here.

Columns and labels:
CB2 receptor = target: T1, CB2 receptor (Homo sapiens, UniProt P34972); assay: Binding assay for CB2 agonists or inverse agonists (SK-N-MC membranes, [3H]-CP-55,940)
T1 construct: expressed in transfected cells
Summary of the method: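 IC50 came from percent-inhibition data over several compound concentrations, fitted by linear regression. Binding used semi-purified membranes of human CB2-transfected SK-N-MC cells, 90 min at 30 °C, pH 7.5 Tris-HCl with MgCl2, EDTA and BSA, then filtration and scintillation counting.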

CB1 receptor [1] = target: T2, CB1 receptor (Homo sapiens, UniProt P21554); assay: Binding assay for CB1 agonists or inverse agonists (SK-N-MC membranes, [3H]-CP-55,940); settings: for IC50: Cannabinoid CB1 Receptor Binding IC50, calculated by linear regression from percent inhibition at various test concentrations; for inhibition at 0.2 µM: read-out: CB1 receptor binding percent inhibition, test concentration 0.2 μM (footnote 2)
T2 construct: expressed in transfected cells
T2 sequence (P21554 whole entry): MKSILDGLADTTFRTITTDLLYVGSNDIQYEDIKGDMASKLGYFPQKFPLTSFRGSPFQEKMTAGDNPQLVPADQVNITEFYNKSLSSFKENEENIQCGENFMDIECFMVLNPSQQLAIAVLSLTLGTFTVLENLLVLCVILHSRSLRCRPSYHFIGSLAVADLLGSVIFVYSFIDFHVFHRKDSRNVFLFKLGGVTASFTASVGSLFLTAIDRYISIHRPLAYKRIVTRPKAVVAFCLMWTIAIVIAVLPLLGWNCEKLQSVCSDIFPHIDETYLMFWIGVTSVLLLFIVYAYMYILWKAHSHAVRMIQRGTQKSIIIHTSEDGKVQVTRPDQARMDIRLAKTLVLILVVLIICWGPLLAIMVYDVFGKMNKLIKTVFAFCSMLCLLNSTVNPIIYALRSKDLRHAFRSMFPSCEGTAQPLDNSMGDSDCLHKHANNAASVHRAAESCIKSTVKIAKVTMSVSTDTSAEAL
Summary of the method: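 Radioligand displacement: [3H]-CP-55,940 at […], 90 min at 30° C, pH 7.5 Tris buffer with 0.5 mg/mL fatty-acid-free BSA, using semi-purified membranes of human-CB1-transfected SK-N-MC cells. Bound counts collected on GF/C filters, 10 uM WIN 55,212 for non-specific; IC50 from percent inhibition over several concentrations.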

CB1 receptor [2] = target: T2, CB1 receptor; assay: cell-based
Summary of the method: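 Read-out is forskolin-driven CRE-β-gal reporter activity in stably transfected human-CB1 SK-N-MC cells, normalised to vehicle (100%); agonism lowers, inverse agonism raises signal. Values are EC50 (linear regression, multiple concentrations) or % change at one concentration.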

[3] = read-out: CB2 receptor binding percent inhibition, test concentration 0.2 μM (footnote 2)
[4] = CB1 Receptor Functional Inverse Agonist EC50, forskolin induced β-galactosidase activity, SK-N-MC cells
[5] = CB1 Receptor Functional Agonist EC50, SK-N-MC cells, forskolin induced β-galactosidase activity

T1 sequence (P34972 whole entry): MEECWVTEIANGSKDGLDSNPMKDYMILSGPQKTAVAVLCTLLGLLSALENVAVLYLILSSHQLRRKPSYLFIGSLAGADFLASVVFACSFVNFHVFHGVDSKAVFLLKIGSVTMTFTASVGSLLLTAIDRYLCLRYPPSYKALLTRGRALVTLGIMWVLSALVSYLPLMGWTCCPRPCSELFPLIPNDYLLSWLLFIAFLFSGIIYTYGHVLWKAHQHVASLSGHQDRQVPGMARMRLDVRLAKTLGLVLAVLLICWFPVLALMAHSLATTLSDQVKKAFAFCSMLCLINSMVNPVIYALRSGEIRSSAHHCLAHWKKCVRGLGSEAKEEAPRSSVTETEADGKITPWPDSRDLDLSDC

SMILES | inhibition at 0.2 µM (CB2 receptor; [3]) [%] | IC50 (CB1 receptor [1]) | inhibition at 0.2 µM (CB1 receptor [1]) [%] | EC50 (CB1 receptor [2]; [4]) [nM] | IC50 (CB2 receptor; Cannabinoid CB2 Receptor Binding IC50, calculated by linear regression from percent inhibition at various test concentrations) [nM] | CB2 receptor binding percent inhibition (CB2 receptor; test concentration not stated) [%] | inhibition at 0.2 µM (CB2 receptor; test concentration 0.2 μM (footnote 2), read-out: CB2 receptor binding percent inhibition) [%] | inhibition at 0.0125 µM (CB1 receptor [1]; read-out: CB1 receptor binding percent inhibition, test concentration 0.0125 μM (footnote 13)) [%] | CB1 receptor binding percent inhibition (CB1 receptor [1]; test concentration not stated) [%] | EC50 (CB1 receptor [2]; forskolin induced β-galactosidase activity, SK-N-MC cells, read-out: CB1 Receptor Functional Inverse Agonist EC50) [nM] | EC50 (CB1 receptor [2]; [5]) [nM]
C[C@H](NC(=O)c1nn(-c2ccc(Cl)cc2Cl)c2c1CCCC/C2=C\c1ccc(Cl)cc1)C1CCCCC1 [Cpd 138, (8E)-8-(4-chloro-benzylidene)-1-(2,4-dichloro-phenyl)-1,4,5,6,7,8-hexahydro-cycloheptapyrazole-3-carboxylic acid [(1S)-1-cyclohexyl-ethyl]-amide] | 22 | 30 nM | 71 | 100 | – | – | – | – | – | – | –
C[C@@H](NC(=O)c1nn(-c2ccc(Cl)cc2Cl)c2c1CCCC/C2=C\c1ccc(F)cc1)c1ccccc1 [Cpd 146, (8E)-1-(2,4-dichloro-phenyl)-8-(4-fluoro-benzylidene)-1,4,5,6,7,8-hexahydro-cycloheptapyrazole-3-carboxylic acid [(1R)-1-phenyl-ethyl]-amide] | 10 | 8 nM and 10 nM | 93 | 20 | 2300 | 3 | – | – | – | – | –
C[C@@H](NC(=O)c1nn(-c2ccc(Cl)cc2Cl)c2c1CCCC/C2=C\c1ccc(F)cc1)C1CCCCC1 [Cpd 147, (8E)-1-(2,4-dichloro-phenyl)-8-(4-fluoro-benzylidene)-1,4,5,6,7,8-hexahydro-cycloheptapyrazole-3-carboxylic acid [(1R)-1-cyclohexyl-ethyl]-amide] | 23 | 7 nM | 94 | 30 | – | – | – | – | – | – | –
C[C@H](NC(=O)c1nn(-c2ccc(Cl)cc2Cl)c2c1CCCC/C2=C\c1ccc(F)cc1)C1CCCCC1 [Cpd 148, (8E)-1-(2,4-dichloro-phenyl)-8-(4-fluoro-benzylidene)-1,4,5,6,7,8-hexahydro-cycloheptapyrazole-3-carboxylic acid [(1S)-1-cyclohexyl-ethyl]-amide] | 39 | 80 nM | 69 | 200 | – | – | – | – | – | – | –
C[C@H](NC(=O)c1nn(-c2ccc(Cl)cc2Cl)c2c1CCCC/C2=C\c1ccc(F)cc1)c1ccccc1 [Cpd 149, (8E)-1-(2,4-dichloro-phenyl)-8-(4-fluoro-benzylidene)-1,4,5,6,7,8-hexahydro-cycloheptapyrazole-3-carboxylic acid [(1S)-1-phenyl-ethyl]-amide] | 4 | 100 nM | 66 | 60 | – | – | – | – | – | – | –
O=C(NN1CCCCC1)c1nn(-c2ccc(Cl)cc2Cl)c2c1CCCC/C2=C\c1ccc(F)cc1 [Cpd 150, (8E)-1-(2,4-dichloro-phenyl)-8-(4-fluoro-benzylidene)-1,4,5,6,7,8-hexahydro-cycloheptapyrazole-3-carboxylic acid piperidin-1-ylamide] | 3 | 100 nM | 65 | 20 | – | – | – | – | – | – | –
O=C(NN1CCOCC1)c1nn(-c2ccc(Cl)cc2Cl)c2c1CCCC/C2=C\c1ccc(F)cc1 [Cpd 151, (8E)-1-(2,4-dichloro-phenyl)-8-(4-fluoro-benzylidene)-1,4,5,6,7,8-hexahydro-cycloheptapyrazole-3-carboxylic acid morpholin-4-ylamide] | 15 | – | 51 | 60 | – | – | – | – | – | – | –
O=C(Nc1ccccn1)c1nn(-c2ccc(Cl)cc2Cl)c2c1CCCC/C2=C\c1ccc(Cl)cc1 [Cpd 152, (8E)-8-(4-chloro-benzylidene)-1-(2,4-dichloro-phenyl)-1,4,5,6,7,8-hexahydro-cycloheptapyrazole-3-carboxylic acid pyridin-2-ylamide] | – | – | 66 | – | – | – | 21 | 28 | 47 | 200 | –
O=C(NCc1ccccn1)c1nn(-c2ccc(Cl)cc2Cl)c2c1CCCC/C2=C\c1ccc(Cl)cc1 [Cpd 155, (8E)-8-(4-chloro-benzylidene)-1-(2,4-dichloro-phenyl)-1,4,5,6,7,8-hexahydro-cycloheptapyrazole-3-carboxylic acid (pyridin-2-ylmethyl)-amide] | 8 | 70 nM | 72 | 30 | – | – | – | – | – | – | –
O=C(NCc1ccncc1)c1nn(-c2ccc(Cl)cc2Cl)c2c1CCCC/C2=C\c1ccc(Cl)cc1 [Cpd 156, (8E)-8-(4-chloro-benzylidene)-1-(2,4-dichloro-phenyl)-1,4,5,6,7,8-hexahydro-cycloheptapyrazole-3-carboxylic acid (pyridin-4-ylmethyl)-amide] | 36 | – | 50 | 90 | – | – | – | – | – | – | –
O=C(NCCc1ccccn1)c1nn(-c2ccc(Cl)cc2Cl)c2c1CCCC/C2=C\c1ccc(Cl)cc1 [Cpd 157, (8E)-8-(4-chloro-benzylidene)-1-(2,4-dichloro-phenyl)-1,4,5,6,7,8-hexahydro-cycloheptapyrazole-3-carboxylic acid (2-pyridin-2-yl-ethyl)-amide] | 5 | 100 nM | 68 | 40 | – | – | – | – | – | – | –
O=C(N[C@@H](CO)c1ccccc1)c1n[nH]c2c1CCCCC2Cc1cccc(Cl)c1 (stereo partly drawn) [Cpd 165, 8-(3-chloro-benzyl)-1,4,5,6,7,8-hexahydro-cycloheptapyrazole-3-carboxylic acid [(1R)-2-hydroxy-1-phenyl-ethyl]-amide] | 98 | – | 79 | – | – | – | – | – | – | – | 30
O=C(N[C@@H](CO)Cc1ccccc1)c1n[nH]c2c1CCCCC2Cc1cccc(Cl)c1 (stereo partly drawn) [Cpd 167, 8-(3-chloro-benzyl)-1,4,5,6,7,8-hexahydro-cycloheptapyrazole-3-carboxylic acid [(1R)-1-benzyl-2-hydroxy-ethyl]-amide] | 97 | – | 57 | – | – | – | – | – | – | – | 50
O=C(N[C@H](CCl)c1ccccc1)c1nn(-c2ccc(F)cc2F)c2c1CCCCC2Cc1ccc(F)cc1 (stereo partly drawn) [Cpd 172, 1-(2,4-difluoro-phenyl)-8-(4-fluoro-benzyl)-1,4,5,6,7,8-hexahydro-cycloheptapyrazole-3-carboxylic acid [(1S)-2-chloro-1-phenyl-ethyl]-amide] | 41 | – | 64 | 100 | – | – | – | – | – | – | –
C[C@@H](NC(=O)c1nn(-c2ccc(S(N)(=O)=O)cc2)c2c1CCCC/C2=C\c1ccc(Cl)cc1)c1ccccc1 [Cpd 184, (8E)-8-(4-chloro-benzylidene)-1-(4-sulfamoyl-phenyl)-1,4,5,6,7,8-hexahydro-cycloheptapyrazole-3-carboxylic acid [(1R)-1-phenyl-ethyl]-amide] | 27 | 50 nM | 78 | 3 | – | – | – | – | – | – | –
C[C@@H](NC(=O)c1nn(-c2ccc(S(N)(=O)=O)cc2)c2c1CCCC/C2=C\c1ccc(Cl)cc1)C1CCCCC1 [Cpd 185, (8E)-8-(4-chloro-benzylidene)-1-(4-sulfamoyl-phenyl)-1,4,5,6,7,8-hexahydro-cycloheptapyrazole-3-carboxylic acid [(1R)-1-cyclohexyl-ethyl]-amide] | 56 | 30 nM | 75 | < 3 | – | – | – | – | – | – | –
O=C(c1nn(-c2ccc(Cl)cc2Cl)c2c1CCCC/C2=C\c1ccc(F)cc1)N1CCCC1c1ccccn1 (stereo not drawn) [Cpd 188, (8E)-[1-(2,4-dichloro-phenyl)-8-(4-fluoro-benzylidene)-1,4,5,6,7,8-hexahydro-cycloheptapyrazol-3-yl]-(2-pyridin-2-yl-pyrrolidin-1-yl)-methanone] | 36 | 100 nM | 64 | 10 | – | – | – | – | – | – | –
C[C@@H](NC(=O)c1nn(-c2ccccc2Cl)c2c1CCCC/C2=C\c1ccc(Cl)cc1)C1CCCCC1 [Cpd 189, (8E)-8-(4-chloro-benzylidene)-1-(2-chloro-phenyl)-1,4,5,6,7,8-hexahydro-cycloheptapyrazole-3-carboxylic acid [(1R)-1-cyclohexyl-ethyl]-amide] | 17 | 50 nM | 78 | 10 | – | – | – | – | – | – | –
C[C@@H](NC(=O)c1nn(-c2ccccc2Cl)c2c1CCCC/C2=C\c1ccc(Cl)cc1)c1ccccc1 [Cpd 190, (8E)-8-(4-chloro-benzylidene)-1-(2-chloro-phenyl)-1,4,5,6,7,8-hexahydro-cycloheptapyrazole-3-carboxylic acid [(1R)-1-phenyl-ethyl]-amide] | 12 | 80 nM | 76 | 9 | – | – | – | – | – | – | –
C[C@H](NC(=O)c1nn(-c2cc(Cl)ccc2Cl)c2c1CCCC/C2=C\c1ccc(Cl)cc1)C1CCCCC1 [Cpd 197, (8E)-8-(4-chloro-benzylidene)-1-(2,5-dichloro-phenyl)-1,4,5,6,7,8-hexahydro-cycloheptapyrazole-3-carboxylic acid [(1S)-1-cyclohexyl-ethyl]-amide] | 67 | 30 nM | 83 | 3 | – | – | – | – | – | – | –
